From patent publication US11459331B2, “Chemical compounds” (Avista Pharma Solutions, Inc., priority 2019, dated 2022)

Target: T1, human EP4 receptor (Homo sapiens, UniProt P35408)
T1 construct: Eurofins Cerep
Test: human EP4 receptor antagonist screen (Eurofins Cerep; cAMP HTRF, PGE2 30 nM stimulus, CHO cells)
Type: cell-based
Details: at 100 nM, EP4(h) antagonist effect, human recombinant (CHO cells), 10 min RT, read-out: % inhibition of control reference agonist response (PGE2)
Method: Compounds were assayed at Eurofins Cerep using the human EP4 receptor antagonist screen. Cellular antagonist effect was calculated as a % inhibition of control reference agonist response for each target (PGE2). In each EP4(h) experiment, a reference antagonist compound, GW627368X, was tested concurrently with the test compounds, and the data were compared with historical values determined at Eurofins. The experiments were accepted in accordance with Eurofins validation Standard Operating Procedure.

T1 sequence (P35408 whole entry): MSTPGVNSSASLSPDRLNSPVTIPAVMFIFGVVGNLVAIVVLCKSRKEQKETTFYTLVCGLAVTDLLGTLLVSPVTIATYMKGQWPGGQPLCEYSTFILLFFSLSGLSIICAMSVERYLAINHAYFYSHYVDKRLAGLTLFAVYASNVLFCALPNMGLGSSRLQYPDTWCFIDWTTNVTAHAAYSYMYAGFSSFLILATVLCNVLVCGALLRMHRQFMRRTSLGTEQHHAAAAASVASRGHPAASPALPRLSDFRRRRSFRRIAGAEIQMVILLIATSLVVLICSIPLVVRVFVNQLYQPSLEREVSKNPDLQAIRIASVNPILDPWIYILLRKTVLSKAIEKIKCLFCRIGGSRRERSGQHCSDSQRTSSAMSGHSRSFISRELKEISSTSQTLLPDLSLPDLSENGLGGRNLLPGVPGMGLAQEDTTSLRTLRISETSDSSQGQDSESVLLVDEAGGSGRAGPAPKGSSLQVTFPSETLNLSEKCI

Row | Structure (SMILES) | inhibition at 0.1 µM [%]
1 | Cc1ccc(S(=O)(=O)NC(=O)NCCc2ccc(-c3c(-c4ccon4)nc4c(C)nc(C)cn34)cc2)cc1 [Compound 15, 1-[2-[4-(2-isoxazol-3-yl-6,8-dimethyl-imidazo[1,2-a]pyrazin-3-yl)phenyl]ethyl]-3-(p-tolylsulfonyl)urea] | ≥ 50
2 | CCc1nc2c(C)nc(C)cn2c1-c1ccc(CCNC(=O)NS(=O)(=O)c2ccccc2C)cc1 [Compound 2, 1-[2-[4-(2-ethyl-6,8-dimethyl-imidazo[1,2-a]pyrazin-3-yl)phenyl]ethyl]-3-(o-tolylsulfonyl)urea] | ≥ 50
3 | CCc1nc2c(C)nc(-c3ccncc3)cn2c1-c1ccc(CCNC(=O)NS(=O)(=O)c2ccc(C)cc2)cc1 [Compound 13, 1-[2-[4-[2-ethyl-8-methyl-6-(4-pyridyl)imidazo[1,2-a]pyrazin-3-yl]phenyl]ethyl]-3-(p-tolylsulfonyl)urea] | ≥ 50
4 | CCc1nc2c(C)nc(C)cn2c1-c1ccc(CCNC(=O)NS(=O)(=O)c2ccc(Cl)cc2)cc1 [Compound 1, 1-(4-chlorophenyl)sulfonyl-3-[2-[4-(2-ethyl-6,8-dimethyl-imidazo[1,2-a]pyrazin-3-yl)phenyl]ethyl]urea] | ≥ 50
